The test deals with T1, human recombinant USP30 (Homo sapiens, UniProt Q70CQ3).
T1 construct: purchased Boston Biochem E-582
T1 sequence (Q70CQ3 1-517): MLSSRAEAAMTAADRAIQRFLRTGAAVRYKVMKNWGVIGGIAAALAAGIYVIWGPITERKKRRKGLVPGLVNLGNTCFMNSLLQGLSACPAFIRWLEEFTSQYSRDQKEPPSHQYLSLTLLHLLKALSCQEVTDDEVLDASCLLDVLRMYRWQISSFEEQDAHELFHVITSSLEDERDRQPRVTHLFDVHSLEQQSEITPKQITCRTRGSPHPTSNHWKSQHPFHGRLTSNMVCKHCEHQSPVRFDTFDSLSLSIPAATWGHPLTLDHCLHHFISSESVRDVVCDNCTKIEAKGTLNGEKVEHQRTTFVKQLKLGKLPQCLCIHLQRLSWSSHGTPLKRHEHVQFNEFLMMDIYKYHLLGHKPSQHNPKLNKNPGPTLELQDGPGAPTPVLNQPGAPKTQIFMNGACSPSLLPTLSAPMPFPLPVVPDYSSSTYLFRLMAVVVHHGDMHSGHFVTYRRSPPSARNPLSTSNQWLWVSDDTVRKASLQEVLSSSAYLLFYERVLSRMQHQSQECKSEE
Put plainly: Ubiquitin-Rhodamine 110 Assay for USP30 Activity (USP30 Inhibitor Biochemical Assay). The conditions noted are these: 0.2 nM USP30, 25 nM Ub-Rh110, 30 min preincubation, 30 min at room temperature; read-out: USP30 potency range (USP30 biochemical IC50 assay, IC50 ranges). The method, boiled down:
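Human recombinant USP30 (0.2 nM final) was preincubated 30 min with compound (25 μM to 1.3 nM, 10-point) in Tris pH 8.0, 1 mM GSH, BGG and Triton X-100. Ub-Rh110 was then added for 30 min at room temperature and stopped with citric acid. Fluorescence at 485/535 nm gave % inhibition and a 4-parameter IC50 fit.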

A value given as a limit tells only on which side of the number the result lay.

For orientation: IC50 means the point on the concentration scale where inhibition reaches its midpoint.

On to `CN(C(=O)c1cc(-c2cccc(C#N)c2)no1)[C@H]1C[C@H](NC#N)C1` [Compound 3-6, 3-(3-cyanophenyl)-N-methyl-N-[(1r,3r)-3-(cyanoamino)cyclobutyl]-1,2-oxazole-5-carboxamide], for which the IC50 fell in the range of 1 to 10 µM.

Regarding `N#CN[C@H]1C[C@@H](NC(=O)c2ncc(-c3ccccc3)s2)C1` [Compound 4-1, 5-phenyl-N-[(cis)-3-(cyanoamino)cyclobutyl]-1,3-thiazole-2-carboxamide], the IC50 was in the range of 1 to 10 µM.

As for `N#CN[C@H]1C[C@@H](C(=O)Nc2cnn(-c3ccccc3)c2)C1` [Compound 5-1, cis-3-(cyanoamino)-N-(1-phenyl-1H-pyrazol-4-yl)cyclobutane-1-carboxamide], the IC50 fell in the range of 1 to 10 µM.

With `N#CN[C@H]1C[C@@H](C(=O)Nc2ccn(-c3ccccc3)n2)C1` [Compound 5-2, cis-3-(cyanoamino)-N-(1-phenyl-1H-pyrazol-3-yl)cyclobutane-1-carboxamide], the IC50 was in the range of 10 to 25 µM.

With `N#CN[C@H]1C[C@@H](C(=O)Nc2ncc(C3CCCCC3)s2)C1` [Compound 5-3, cis-3-(cyanoamino)-N-(5-cyclohexyl-1,3-thiazol-2-yl)cyclobutane-1-carboxamide], the IC50 fell in the range of 1 to 10 µM.

As to `N#CN[C@H]1C[C@@H](C(=O)Nc2ncc(-c3ccccc3)s2)C1` [Compound 5-4, cis-3-(cyanoamino)-N-(5-phenyl-1,3-thiazol-2-yl)cyclobutane-1-carboxamide], the IC50 lay within 1 to 10 µM.

Consider `N#CN[C@H]1C[C@H](C(=O)Nc2cnn(-c3ccccc3)c2)C1` [Compound 5-5, trans-3-(cyanoamino)-N-(1-phenyl-1H-pyrazol-4-yl)cyclobutane-1-carboxamide], for which the IC50 was 1 to 10 µM.

For the compound `N#CN[C@H]1C[C@H](C(=O)Nc2ccn(-c3ccccc3)n2)C1` [Compound 5-6, trans-3-(cyanoamino)-N-(1-phenyl-1H-pyrazol-3-y1)cyclobutane-1-carboxamide], the IC50 was 1 to 10 µM.

`N#CN[C@H]1C[C@H](C(=O)Nc2ncc(C3CCCCC3)s2)C1` [Compound 5-7, trans-3-(cyanoamino)-N-(5-cyclohexyl-1,3-thiazol-2-yl)cyclobutane-1-carboxamide]: the IC50 was 0.1 to 1 µM.

Turning to `N#CN[C@H]1C[C@H](C(=O)Nc2ncc(-c3ccccc3)s2)C1` [Compound 5-8, trans-3-(cyanoamino)-N-(5-phenyl-1,3-thiazol-2-yl)cyclobutane-1-carboxamide], the IC50 fell in the range of 1 to 10 µM.

On to `N#CN[C@H]1C[C@@H](C(=O)Nc2ccc3c(c2)CCC3)C1` [Compound 5-9, cis-3-(cyanoamino)-N-(2,3-dihydro-1H-inden-5-yl)cyclobutane-1-carboxamide], for which the IC50 was in the range of 1 to 10 µM.

In the case of `CC(C)(C)c1cnc(NC(=O)[C@H]2C[C@@H](NC#N)C2)s1` [Compound 5-10, cis-N-(5-tert-butyl-1,3-thiazol-2-yl)-3-(cyanoamino)cyclobutane-1-carboxamide], the concentration for half-maximal inhibition (IC50) was 10 to 25 µM.

For the compound `N#CN[C@H]1C[C@@H](C(=O)N2CCN(c3ccccc3)CC2)C1` [Compound 5-11, {[cis-3-(4-phenylpiperazine-1-carbonyl)cyclobutyl]amino} carbonitrile], the IC50 lay in the range of 10 to 25 µM.

Consider `N#CN[C@H]1C[C@H](C(=O)Nc2ccc3c(c2)CCC3)C1` [Compound 5-12, trans-3-(cyanoamio)-N-(2,3-dihydro-1H-inden-5-yl)cyclobutane-1-carboxamide], for which the IC50 was 1 to 10 µM.

With `CC(C)(C)c1cnc(NC(=O)[C@H]2C[C@H](NC#N)C2)s1` [Compound 5-13, trans-N-(5-tert-butyl-1,3-thiazol-2-yl)-3-(cyanoamino)cyclobutane-1-carboxamide], the IC50 fell in the range of 0.1 to 1 µM.

In the case of `N#CN[C@H]1C[C@H](C(=O)Nc2ccc(N3CCOCC3)cc2)C1` [Compound 5-14, trans-3-(cyanoamino)-N-[4-(morpholin-4-yl)phenyl]cylobutane-1-carboxamide], the concentration for half-maximal inhibition (IC50) was 10 to 25 µM.

`N#CN[C@H]1C[C@@]2(CCN(c3nc(Cl)c(C4CCCCC4)s3)C2=O)C1` [Compound 7-2, {[(2s,4r)-6-(4-chloro-5-cyclohexyl-l,3-thiazol-2-yl)-5-oxo-6-azaspiro[3.4]octan-2-yl]amino}carbonitrile]: the IC50 fell in the range of 0.1 to 1 µM.

For the compound `N#CN[C@H]1C[C@]2(CCN(c3nc(Cl)c(C4CCCCC4)s3)C2=O)C1` [Compound 7-3, {[(2r,4s)-6-(4-chloro-5-cyclohexyl-1,3-thiazol-2-yl)-5-oxo-6-azaspiro[3.4]octan-2-yl]amino}carbonitrilc], the IC50 was less than 0.1 µM.

With `CO[C@]1(C(=O)Nc2nc(Cl)c(C(C)(C)C)s2)C[C@@H](NC#N)C1` [Compound 8-1, N-(5-tert-butyl-4-chloro-1,3-thiazol-2-yl)-3-(cyanoamino)-1-methoxycyclobutane-1-carboxamide], the IC50 is less than 0.1 µM.

As for `N#CN[C@H]1CC[C@@H](C(=O)Nc2ncc(C3CCCCC3)s2)CC1` [Compound 10-1, cis-4-(cyanoamino)-N-(5-cyclohexyl-1,3-thiazol-2-yl)cyclohexane-1-carboxamide], the IC50 lay within 0.1 to 1 µM.

On to `N#CN[C@H]1CC[C@H](C(=O)Nc2ncc(C3CCCCC3)s2)CC1` [Compound 10-2, trans-4-(cyanoamino)-N-(5-cyclohexyl-1,3-thiazol-2-yl)cyclohexane-1-carboxamide], for which the concentration for half-maximal inhibition (IC50) was 1 to 10 µM.

On to `N#CN[C@@H]1CCC[C@H]1C(=O)Nc1ncc(C2CCCCC2)s1` [Compound 10-3, (1R,2R)-2-(cyanoamino)-N-(5-cyclohexyl-1,3-thiazol-2-yl)cyclopentane-1-carboxamide], for which the IC50 was 1 to 10 µM.

Regarding `N#CN[C@H]1CCC[C@@H](C(=O)Nc2ncc(C3CCCCC3)s2)C1` [Compound 10-4, (1R,3S)-3-(cyanoamino)-N-(5-cyclohexyl-1,3-thiazol-2-yl)cyclohexane-1-carboxamide], the IC50 was more than 25 µM.

Consider `N#CN[C@H]1CCC[C@H](C(=O)Nc2ncc(C3CCCCC3)s2)C1` [Compound 10-5, (1S,3S)-3-(cyanoamino)-N-(5-cyclohexyl-1,3-thiazol-2-yl)cyclohexane-1-carboxamide], for which the IC50 is more than 25 µM.

For `N#CN[C@@H]1CCC[C@H](C(=O)Nc2ncc(C3CCCCC3)s2)C1` [Compound 10-6, (1S,3R)-3-(cyanoamino)-N-(5-cyclohexyl-1,3-thiazol-2-yl)cyclohexane-1-carboxamide], the IC50 fell in the range of 1 to 10 µM.

For the compound `N#CN[C@H]1CCC[C@H]1C(=O)Nc1ncc(C2CCCCC2)s1` [Compound 10-7, (1R,2S)-2-(cyanoamino)-N-(5-cyclohexyl-1,3-thiazol-2-yl)cyclopentane-1-carboxamide], the 50% inhibitory concentration (IC50) is 1 to 10 µM.

Consider `N#CN[C@@H]1CCC[C@@H]1C(=O)Nc1ncc(C2CCCCC2)s1` [Compound 10-8, (1S,2R)-2-(cyanoamino)-N-(5-cyclohexyl-1,3-thiazol-2-yl)cyclopentane-1-carboxamide], for which the half-maximal inhibitory concentration (IC50) lay within 1 to 10 µM.

On to `N#CN[C@H]1CCC[C@@H]1C(=O)Nc1ncc(C2CCCCC2)s1` [Compound 10-9, (1S,2S)-2-(cyanoamino)-N-(5-cyclohexyl-1,3-thiazol-2-yl)cyclopentane-1-carboxamide], for which the IC50 was 1 to 10 µM.

As to `N#CN[C@H]1CC[C@H](C(=O)Nc2ncc(C3CCOCC3)s2)C1` [Compound 10-10, (1S,3S)-3-(cyanoamino)-N-[5-(oxan-4-yl)-1,3-thiazol-2-yl]cyclopentane-1-carboxamide], the IC50 lay in the range of 1 to 10 µM.

As for `N#CN[C@@H]1CC[C@@H](C(=O)Nc2ncc(C3CCOCC3)s2)C1` [Compound 10-11, (1R,3R)-3-(cyanoamino)-N-[5-(oxan-4-yl)-1,3-thiazol-2-yl]cyclopentane-1-carboxamide], the IC50 fell in the range of 10 to 25 µM.

For `N#CN[C@H]1CC[C@@H](C(=O)Nc2ncc(-c3ccccc3)s2)C1` [Compound 12-1, (1R,3S)-3-(cyanoamino)-N-(5-phenyl-1,3-thiazol-2-yl)cyclopentane-1-carboxamide], the IC50 fell in the range of 1 to 10 µM.

As for `N#CN[C@H]1CC[C@H](C(=O)Nc2ccn(-c3ccccc3)n2)C1` [Compound 12-2, (1S,3S)-3-(cyanoamino)-N-(1-phenyl-1H-pyrazol-3-yl)cyclopentane-1-carboxamide], the IC50 lay in the range of 10 to 25 µM.

Take `N#CN[C@H]1CC[C@H](C(=O)Nc2ncc(C3CCCCC3)s2)C1` [Compound 12-3, (1S,3S)-3-(cyanoamino)-N-(5-cyclohexyl-1,3-thiazol-2-yl)cyclopentane-1-carboxamide]: the IC50 was 0.1 to 1 µM.

With `N#CN[C@H]1CC[C@H](C(=O)Nc2ncc(-c3ccccc3)s2)C1` [Compound 12-4, (1S,3S)-3-(cyanoamino)-N-(5-phenyl-1,3-thiazol-2-yl)cyclopentane-1-carboxamide], the half-maximal inhibitory concentration (IC50) was in the range of 1 to 10 µM.

As for `N#CN[C@H]1CC[C@H](C(=O)Nc2ccc3c(c2)CCC3)C1` [Compound 12-5, (1S,3S)-3-(cyanoamino)-N-(2,3-dihydro-1H-inden-5-yl)cyclopentane-1-carboxamide], the IC50 fell in the range of 10 to 25 µM.

Regarding `N#CN[C@H]1CC[C@H](C(=O)N2CCN(c3ccccc3)CC2)C1` [Compound 12-6, {[(1S,3S)-3-(4-phenylpiperazine-1-carbonyl)cyclopentyl]amino}carbonitrile], the IC50 is more than 25 µM.

The values above are taken from patent publication US11247987B2, “Inhibiting ubiquitin specific peptidase 30” (FORMA Therapeutics, Inc., priority 2017, dated 2022).
